According to patent US20260199368A1, “[…] SYSTEM CONTAINING REMIMAZOLAM” (LTS LOHMANN THERAPIE-SYSTEME AG, priority 2022, published 2026):

Assays:
[1] = pH and appearance of permeation donor solutions; assay type: physicochemical; settings: Artificial Saliva
Procedure: The permeated amount and the corresponding mucosa permeation rates of the oromucosal delivery system prepared according to Examples 2a were determined by in vitro experiments in accordance with the OECD Guideline (adopted Apr. 13, 2004) using pig mucosa with a thickness of 400 μm (mucosa oesophagus). The donor solutions were prepared by dissolving a sample film of Example 2a with a size of 5.75 cm^2 either in 5 ml artificial saliva or in 5 ml 0.9% NaCl. The remimazolam besylate was dissolved in artificial saliva so that the applied dose of RMZ was equivalent to an oromucosal delivery system containing 50 mg remimazolam in 500 μL medium, and the pH of the mixture was adjusted as indicated in Table 19. The pH was measured using a pH electrode. The permeation donor solutions were directly applied to the mucosa (diffusion area of 4.524 cm^2). The remimazolam permeated amount in the receptor medium (phosphate buffer solution pH 7.4) at a temperature of 37±1° C. was measured and the corresponding mucosa permeation rate calculated.
Due to the high variability in permeation run 1 (n=3), a second permeation experiment was performed with more replicates (n=6) to enlarge the data basis. The samples used are defined in table 15. Example 2a and Lyophilizate were dissolved in artificial saliva and 0.9% NaCl, respectively. Due to a pH adjustment in the lyophilizate/drug product, the resulting pH was slightly lower (pH 3.14 and pH 3.09) than with the Example 2a without pH adjustment (pH 3.67 and pH 3.50). A RMZ sample set to pH 3 served as a control.

[2] = In vivo studies using Goettingen minipigs: RMZ and CNS7054 plasma pharmacokinetics and bioavailability; settings: IV, 10 mg
Procedure: In order to assess the pharmacokinetic profile and effect of buccally administered oromucosal delivery systems containing remimazolam besylate, in vivo experiments using Goettingen minipigs (female, about 3 months old, body weight was 7 kg at the start of the study) were conducted. Three minipigs were used. A single oromucosal delivery system of Examples 1c (foam) and 1d (hotmelt), prepared as described above, with a nominal amount of 20 mg remimazolam (formulated as 27.2 mg nominal remimazolam besylate), was used per animal (with the exception of animal No 3 in Phase 1, where only half of an oromucosal delivery system of each type was placed in each side). The oromucosal delivery system foam was cut into two pieces to fit on the buccal mucosa.
The dose was given by buccal administration (oromucosal delivery system; hotmelt and foam) or IV administration (10 mg remimazolam formulated as remimazolam besylate according to the treatment schedule shown in table 9. No less than 48 hours were allowed between dosing occasions to allow for proper wash-out. The treatment with the oromucosal delivery systems was performed as follows: • 1. The animals were anaesthetized by mask with isoflurane to obtain sufficient depth of anesthesia to facilitate the placement of the oromucosal delivery system without stressing the animals. The length and concentration of isoflurane anesthesia was similar in all animals. • 2. The oromucosal delivery system was placed on the buccal mucosa. A small amount of saline was applied to the mucosa to facilitate the dissolution process on a single occasion in Phase 1. • 3. The mouth of the minipigs was closed for 1-2 minutes and then opened to check for completely dissolved oromucosal delivery system. If the oromucosal delivery system was not dissolved further checks were performed with intervals of 1-2 minutes, as required. • 4. The isoflurane treatment was stopped as soon as the oromucosal delivery system was dissolved.
In order to evaluate the bioavailability, the animals also received a single intravenous (IV) dose. The IV dose volume was administered as a bolus over a period of approximately 1 minute.
The RMZ IV dose formulation was prepared in glass containers. To prepare said formulation of nominal 5 mg/mL (stock solution), a drug product vial (50 mg of RZM powder) was reconstituted with 10 mL of 0.9% w/v sodium chloride solution. The reconstituted solutions of RMZ were clear and colorless to slightly yellow. The reconstituted RMZ drug product was used within 24 hours.
After each dosing in phase 2-4, blood samples were taken from all animals. Blood samples were collected at 8 time points following application of the oromucosal delivery systems. Samples were collected at the following time points: pre-treatment, and 2, 5, 10, 20, 40, 60 and 90 minutes post-treatment.
RMZ concentrations and CNS7054 concentrations in minipig plasma were determined using a validated liquid-liquid extraction followed by LC-MS/MS. All samples, collected before treatment start, were measured to be below the limit of quantification (0.100 ng/mL).
Individual plasma concentrations are listed in Table 13 and are graphically depicted in FIGS. 3a to 5b. Additionally, basic pharmacokinetic parameters such as maximal plasma concentration (cmax), time to reaching it (tmax) and exposure defined as Area Under the Curve (AUC0-t) are summarized in Table 13 for each individual animal for both RMZ and CNS7054 and following IV administration or administration of either of the two oromucosal delivery system formulations.
For the evaluation of the bioavailability (BA), dose-normalized cmax (cmax/D) and dose-normalized AUC (AUC0-t/D) were determined for the two oromucosal delivery system formulations for RMZ and CNS7054.

COC(=O)CC[C@@H]1N=C(c2ccccn2)c2cc(Br)ccc2-n2c(C)cnc21.O=S(=O)(O)c1ccccc1 [RMZ, remimazolam besylate]
Appearance of Donor Solution ([1]; run 1, set pH 2): Clear solution
Appearance of Donor Solution ([1]; run 1, set pH 3): Little RMZ solid
Appearance of Donor Solution ([1]; run 1, set pH 4.5): Much RMZ solid
Appearance of Donor Solution ([1]; run 1, set pH 6): Very much RMZ solid
Appearance of Donor Solution ([1]; run 2, set pH 3): Little RMZ solid
CNS7054 plasma concentration ([2]; Animal No 1, 1 min): 108 ng/mL
Remimazolam plasma concentration ([2]; Animal No 1, 1 min): 1032 ng/mL
CNS7054 plasma concentration ([2]; Animal No 1, 5 min): 224 ng/mL
Remimazolam plasma concentration ([2]; Animal No 1, 5 min): 767 ng/mL
CNS7054 plasma concentration ([2]; Animal No 1, 10 min): 283 ng/mL
Remimazolam plasma concentration ([2]; Animal No 1, 10 min): 389.5 ng/mL
CNS7054 plasma concentration ([2]; Animal No 1, 20 min): 423 ng/mL
Remimazolam plasma concentration ([2]; Animal No 1, 20 min): 285.5 ng/mL
CNS7054 plasma concentration ([2]; Animal No 1, 40 min): 406 ng/mL
Remimazolam plasma concentration ([2]; Animal No 1, 40 min): 149.3 ng/mL
CNS7054 plasma concentration ([2]; Animal No 1, 60 min): 329 ng/mL
Remimazolam plasma concentration ([2]; Animal No 1, 60 min): 76.1 ng/mL
CNS7054 plasma concentration ([2]; Animal No 1, 90 min): 302 ng/mL
Remimazolam plasma concentration ([2]; Animal No 1, 90 min): 40.6 ng/mL
CNS7054 AUC0-t ([2]; Animal No 1): 30508.5 ng·min/mL
CNS7054 cmax ([2]; Animal No 1): 423 ng/mL
CNS7054 tmax ([2]; Animal No 1): 20 min
Remimazolam AUC0-t ([2]; Animal No 1): 18349.25 ng·min/mL
Remimazolam cmax ([2]; Animal No 1): 1032 ng/mL
Remimazolam tmax ([2]; Animal No 1): 2 min
CNS7054 plasma concentration ([2]; Animal No 2, 1 min): 539 ng/mL
Remimazolam plasma concentration ([2]; Animal No 2, 1 min): 1244 ng/mL
CNS7054 plasma concentration ([2]; Animal No 2, 5 min): 707 ng/mL
Remimazolam plasma concentration ([2]; Animal No 2, 5 min): 432 ng/mL
CNS7054 plasma concentration ([2]; Animal No 2, 10 min): 851 ng/mL
Remimazolam plasma concentration ([2]; Animal No 2, 10 min): 469 ng/mL
CNS7054 plasma concentration ([2]; Animal No 2, 20 min): 783 ng/mL
Remimazolam plasma concentration ([2]; Animal No 2, 20 min): 208.8 ng/mL
CNS7054 plasma concentration ([2]; Animal No 2, 40 min): 508 ng/mL
Remimazolam plasma concentration ([2]; Animal No 2, 40 min): 52.6 ng/mL
CNS7054 plasma concentration ([2]; Animal No 2, 60 min): 267 ng/mL
CNS7054 plasma concentration ([2]; Animal No 2, 90 min): 170 ng/mL
CNS7054 AUC0-t ([2]; Animal No 2): 41688 ng·min/mL
CNS7054 cmax ([2]; Animal No 2): 851 ng/mL
CNS7054 tmax ([2]; Animal No 2): 10 min
Remimazolam AUC0-t ([2]; Animal No 2): 12539.5 ng·min/mL
Remimazolam cmax ([2]; Animal No 2): 1244 ng/mL
Remimazolam tmax ([2]; Animal No 2): 2 min
CNS7054 plasma concentration ([2]; Animal No 3, 1 min): 387 ng/mL
Remimazolam plasma concentration ([2]; Animal No 3, 1 min): 654 ng/mL
CNS7054 plasma concentration ([2]; Animal No 3, 5 min): 815 ng/mL
Remimazolam plasma concentration ([2]; Animal No 3, 5 min): 353.9 ng/mL
CNS7054 plasma concentration ([2]; Animal No 3, 10 min): 798 ng/mL
Remimazolam plasma concentration ([2]; Animal No 3, 10 min): 201 ng/mL
CNS7054 plasma concentration ([2]; Animal No 3, 20 min): 770 ng/mL
Remimazolam plasma concentration ([2]; Animal No 3, 20 min): 124.3 ng/mL
CNS7054 plasma concentration ([2]; Animal No 3, 40 min): 625 ng/mL
Remimazolam plasma concentration ([2]; Animal No 3, 40 min): 41.2 ng/mL
CNS7054 plasma concentration ([2]; Animal No 3, 60 min): 423 ng/mL
Remimazolam plasma concentration ([2]; Animal No 3, 60 min): 52.2 ng/mL
CNS7054 plasma concentration ([2]; Animal No 3, 90 min): 123 ng/mL
CNS7054 AUC0-t ([2]; Animal No 3): 46682.5 ng·min/mL
CNS7054 cmax ([2]; Animal No 3): 815 ng/mL
CNS7054 tmax ([2]; Animal No 3): 5 min
Remimazolam AUC0-t ([2]; Animal No 3): 8551.6 ng·min/mL
Remimazolam cmax ([2]; Animal No 3): 654 ng/mL
Remimazolam tmax ([2]; Animal No 3): 2 min
